Counter-ions that a name gives are not always drawn. Like-named read-outs stand apart in the source and are kept apart here.
Key:
hERG channel = hERG channel (Homo sapiens, UniProt Q12809)
[1] = system: untransduced U-2 OS cells; assay: thallium flux counter-screen in untransduced U-2 OS cells; format: cell-based, human; conditions: concentration response (Fig. 3A)
[2] = IC50, LOPAC 1280 library qHTS, titration series, hERG-expressing U-2 OS cells

hERG channel, sequence (Q12809 whole entry): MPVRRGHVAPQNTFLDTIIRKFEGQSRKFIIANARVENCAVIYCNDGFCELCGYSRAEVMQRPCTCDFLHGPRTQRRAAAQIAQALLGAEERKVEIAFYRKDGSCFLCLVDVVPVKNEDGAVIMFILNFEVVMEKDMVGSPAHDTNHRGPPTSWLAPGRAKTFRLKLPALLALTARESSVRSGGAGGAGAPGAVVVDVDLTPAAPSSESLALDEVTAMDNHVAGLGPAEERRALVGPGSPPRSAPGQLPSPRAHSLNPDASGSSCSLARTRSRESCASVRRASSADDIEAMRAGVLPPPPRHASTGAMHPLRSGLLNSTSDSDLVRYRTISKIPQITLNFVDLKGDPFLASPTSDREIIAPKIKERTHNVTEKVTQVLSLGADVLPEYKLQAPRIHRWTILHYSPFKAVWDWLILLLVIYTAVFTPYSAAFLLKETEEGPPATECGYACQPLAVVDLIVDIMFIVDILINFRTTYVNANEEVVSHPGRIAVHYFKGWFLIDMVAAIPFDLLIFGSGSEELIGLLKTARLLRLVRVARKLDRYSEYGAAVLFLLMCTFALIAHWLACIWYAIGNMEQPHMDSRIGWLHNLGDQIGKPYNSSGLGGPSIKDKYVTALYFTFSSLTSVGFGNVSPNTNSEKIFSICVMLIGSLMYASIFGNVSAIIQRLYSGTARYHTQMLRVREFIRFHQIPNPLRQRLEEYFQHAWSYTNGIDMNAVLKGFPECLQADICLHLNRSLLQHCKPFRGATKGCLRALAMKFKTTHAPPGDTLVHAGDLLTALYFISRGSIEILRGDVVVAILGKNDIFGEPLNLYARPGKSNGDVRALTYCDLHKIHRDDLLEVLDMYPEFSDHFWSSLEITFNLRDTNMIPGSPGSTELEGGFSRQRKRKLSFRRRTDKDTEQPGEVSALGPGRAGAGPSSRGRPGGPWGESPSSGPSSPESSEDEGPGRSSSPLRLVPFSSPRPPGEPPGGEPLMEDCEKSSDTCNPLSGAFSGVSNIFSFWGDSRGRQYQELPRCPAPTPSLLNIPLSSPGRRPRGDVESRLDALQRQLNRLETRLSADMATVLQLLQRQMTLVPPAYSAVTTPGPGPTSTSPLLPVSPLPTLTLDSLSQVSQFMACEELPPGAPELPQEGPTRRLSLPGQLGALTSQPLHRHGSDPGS

For CCNC(=O)N1CCN(CCCC(c2ccc(F)cc2)c2ccc(F)cc2)CC1 [Amperozide hydrochloride], the IC50 (hERG channel; [2]) was 60 nM.
For CCCCN1[C@@H]2CC[C@H]1CC(OC(c1ccc(F)cc1)c1ccc(F)cc1)C2 (some centres unmarked) [JHW 007 hydrochloride], the IC50 (hERG channel; LOPAC 1280 library qHTS, titration series, hERG-expressing U-2 OS cells) was 90 nM.
Cc1nc2sccn2c(=O)c1CCN1CCC(=C(c2ccc(F)cc2)c2ccc(F)cc2)CC1 [Ritanserin] was tested, and the IC50 (hERG channel; [2]) was 70 nM.
CCOC(=O)C1=C[C@]2(CC)CCCN3CCc4c(n1c1ccccc41)[C@@H]32 [Vinpocetine] was tested, and the IC50 (hERG channel) was 140 nM.
For O=C(CCCN1CCC(O)(c2ccc(Cl)cc2)CC1)c1ccc(F)cc1 [haloperidol], the “effect on untransduced cells” value [1] was “no effect”.

Reference: PMC2766802 (Analytical biochemistry, 2009)
